Tests used:
[1] = target: T1, human 5-HT6 (h5-HT6) receptors (Homo sapiens, UniProt P50406); assay: Competition radioligand binding, h5-HT6; conditions: [3H]LSD; membranes of HEK-293 cells; read-out: Ki 5-HT6
T1 construct: purchased Receptor Biology, Inc. (Beltsville, Md.); host or cells: HEK-293 cells

[2] = target: T2, human 5-HT7B (h5-HT7b) receptors (Homo sapiens, UniProt P34969); assay: Competition radioligand binding, h5-HT7b; conditions: [3H]5-CT; membranes of HEK 293 cells; read-out: Ki 5-HT7
T2 construct: expressed in transfected cells
Source text: The compounds of the invention interact with 5-HT receptors and show selectivity for 5-HT receptors. The 5-HT receptor binding properties of the compounds are identified by competitive radioligand binding assays wherein membranes prepared from transfected cells expressing the 5-HT receptor subtype of interest. “Binding constants” refers herein to Ki values measured by inhibition of the binding of radiolabelled ligands that are selective for the 5-HT receptor type being studied. For 5-HT7 receptors, Ki values are determined by measuring the inhibition of 5-carboxamidotryptamine (5-CT) binding, wherein 5-HT7 receptors were incubated with the radiolabelled high affinity ligand, 5-carboxamidotryptamine ([^3H]5-CT), in the presence and absence of the compounds of the invention, at varying concentrations. The compounds of the invention have high binding affinity for serotonin receptors as measured by dissociation constant Ki. […] “Selectivity” for receptor type, in the context of this invention, refers to the ratio of binding constants for the two receptor types being compared. […] The compounds of the present invention preferably show selectivity for 5-HT7 receptors over other serotonin receptor subtypes of greater than about 100. The compounds of the present invention also preferably show selectivity for 5-HT7 receptors over other receptor types, such as dopamine D2, of greater than about 100.
Cells and Membrane Preparation: HEK 293 cells stably expressing human 5-HT7B (h5-HT7b) receptors were grown in Dulbecco's Modified Eagle's Medium (DMEM; Gibco) without sodium pyruvate and containing 4.5 g/L glucose, L-glutamine/penicillin-streptomycin (Gemini), 10% fetal bovine serum and 250 mg/l of the antibiotic, G418 (Geneticin) as previously described (Jasper, J. R., Kosaka, A., To, Z. P., Chang, D. J. and Eglen, R. M. (1997) Cloning, expression and pharmacology of a truncated splice variant of the human 5-ht7 receptor (h5-ht7b). Br. J. Pharmacol. 122(1):126-132.). Cell pellets were homogenized in approximately 50 mL of homogenization buffer (buffer A) containing: 50 mM Tris (pH 7.4), 2 mM EGTA, 0.32 M sucrose, 10 μM PMSF, 1 μg/mL leupeptin, 5 μg/mL Pepstatin A, and 5 μg/mL aprotinin using an UltraTurax homogenizer (Tekmar Company, Cincinnati, Ohio) at 80% maximum setting three times for 10 sec. Cell pellets were centrifuged at 4° C. at 1,500×g for 10 min in a Beckman GS-6R centrifuge. Pellets were resuspended in buffer A, homogenized and centrifuged as described above. Pooled supernatants were transferred to centrifuge bottles and centrifuged at 4° C. at 20,000×g for 30 min in a Beckman J2-HS centrifuge. Cell pellets were resuspended in buffer A and were centrifuged at 4° C. at 20,000×g for 30 min. Cell pellets were resuspended in buffer A and stored at −70° C. in aliquots of 2.5 mg/mL total membrane protein. Total membrane protein was assessed utilizing a BCA kit (Pierce; Rockford, Ill.). Membranes containing human 5-HT1a or 5HT2a receptors expressed in CHO K1 cells were prepared as described above.
Radioligand Binding Assays: For 5-HT7 saturation binding experiments, HEK-293 cell membranes expressing h5-HT7 receptors (5-10 μg membrane protein/well) were incubated in duplicate with [^3H]5-CT (approximately 0.2 nM) in binding assay buffer containing: 50 mM HEPES (pH 7.4), 0.5 mM EDTA, 10 mM MgCl2, 10 μM pargyline to inhibit monoamine oxidase activity, and 0.1% sodium ascorbate, in a final volume of 200 μL in 96-well polypropylene plates for 2 hours at 37° C. Nonspecific binding was determined by incubating membranes with 1 μM 5-HT. All radioligand binding assays were stopped by rapid filtration onto 96-well GF/C filter plates (Packard) soaked in 0.1% polyethylenimine. Filters were washed three times with ice-cold phosphate-buffered saline (PBS) wash buffer containing 50 mM NaPO4 (pH 7.4), 0.9% NaCl, 2 mM MgCl2 and 0.02% NaN3. The filters were then counted using liquid scintillation in a Packard Topcount scintillation counter. […]

[3] = target: T3, human D2S dopamine (hD2S-DA) receptors (Homo sapiens, UniProt P14416); assay: Competition radioligand binding, hD2S dopamine; conditions: [3H]Spiperone; membranes of A9 L cells; read-out: Ki D2
T3 construct: purchased Receptor Biology, Inc. (Beltsville, Md.); host or cells: A9 L cells
T3 sequence (P14416 1-414 isoform P14416-2): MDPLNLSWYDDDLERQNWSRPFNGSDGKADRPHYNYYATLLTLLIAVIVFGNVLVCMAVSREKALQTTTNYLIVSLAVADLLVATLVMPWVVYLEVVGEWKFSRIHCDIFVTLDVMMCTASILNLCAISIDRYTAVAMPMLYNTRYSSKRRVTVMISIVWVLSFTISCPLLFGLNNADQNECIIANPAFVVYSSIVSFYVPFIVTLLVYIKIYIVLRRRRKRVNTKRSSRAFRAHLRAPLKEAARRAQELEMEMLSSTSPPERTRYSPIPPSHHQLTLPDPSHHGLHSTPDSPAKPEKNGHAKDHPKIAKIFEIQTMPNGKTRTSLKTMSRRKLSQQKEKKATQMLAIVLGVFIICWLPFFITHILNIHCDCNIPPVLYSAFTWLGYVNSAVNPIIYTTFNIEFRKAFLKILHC

T2 sequence (P34969 1-432 limits assumed): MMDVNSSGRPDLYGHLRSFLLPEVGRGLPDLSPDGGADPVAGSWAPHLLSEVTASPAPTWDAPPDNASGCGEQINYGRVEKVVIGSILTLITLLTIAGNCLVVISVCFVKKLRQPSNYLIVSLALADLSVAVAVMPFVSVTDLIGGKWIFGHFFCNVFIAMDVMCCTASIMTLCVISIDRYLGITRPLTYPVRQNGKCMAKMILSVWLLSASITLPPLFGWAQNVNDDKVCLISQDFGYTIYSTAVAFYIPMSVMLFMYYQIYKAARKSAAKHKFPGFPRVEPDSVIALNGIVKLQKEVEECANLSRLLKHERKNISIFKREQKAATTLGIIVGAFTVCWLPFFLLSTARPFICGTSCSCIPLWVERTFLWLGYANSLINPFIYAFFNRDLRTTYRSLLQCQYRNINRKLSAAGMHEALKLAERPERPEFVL
T1 sequence (P50406 whole entry): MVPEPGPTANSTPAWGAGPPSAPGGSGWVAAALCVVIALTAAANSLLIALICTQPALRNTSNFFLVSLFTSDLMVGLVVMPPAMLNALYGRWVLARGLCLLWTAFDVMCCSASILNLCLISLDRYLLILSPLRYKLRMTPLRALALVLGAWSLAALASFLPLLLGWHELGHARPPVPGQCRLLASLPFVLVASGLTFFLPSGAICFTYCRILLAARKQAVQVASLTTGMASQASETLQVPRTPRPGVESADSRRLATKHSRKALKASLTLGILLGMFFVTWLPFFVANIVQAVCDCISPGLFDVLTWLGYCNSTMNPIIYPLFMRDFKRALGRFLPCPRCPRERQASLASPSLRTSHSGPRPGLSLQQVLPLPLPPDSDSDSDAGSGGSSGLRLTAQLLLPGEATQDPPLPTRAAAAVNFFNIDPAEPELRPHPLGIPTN

## N=C(NCc1cccc2ccccc12)NC(=O)NCC1CCNCC1 [Example 2, 4-({[({Imino[(1-naphthylmethyl)amino]methyl}amino)carbonyl]amino}methyl)piperidine]
[1]
  Ki: 3200 nM
[2]
  Ki: 46 nM
[3]
  Ki: > 2500 nM

## COC(=O)NC(=N)NCc1cccc2ccccc12 [Example 4, Methylimino[(1-naphthylmethyl)amino]methylcarbamate]
[2]
  Ki: 820 nM

## N=C(NC(=O)NCc1cccc(Cl)c1Cl)NC1CCCCC1O (stereo not drawn) [Example 9, 1,2-Dichloro-3-{[({[[(2-hydroxycyclohexyl)amino](imino)methyl]amino}carbonyl)amino]methyl}benzene]
[2]
  Ki: 320 nM

## Cc1ccccc1CNC(=O)NC(=N)NCCc1ccccn1 [Example 10, 2-(2-{[Imino([{(2-methylbenzyl)amino]carbonyl}amino)methyl]amino}ethyl)pyridine]
[2]
  Ki: 250 nM
[3]
  Ki: > 2500 nM

## N=C(NCc1cccc2ccccc12)NC(=O)NCCCn1ccnc1 [Example 11]
[1]
  Ki: 910 nM
[2]
  Ki: 25 nM
[3]
  Ki: 920 nM

## N=C(NCc1cccc2ccccc12)NC(=O)N1CCCC(C(N)=O)C1 (stereo not drawn) [Example 12, 1-[({Imino[(1-naphthylmethyl)amino]methyl}amino)carbonyl]-3-piperidine carboxamide]
[2]
  Ki: 180 nM

## CN1CCCC1CCNC(=O)NC(=N)NCc1cccc2ccccc12 (stereo not drawn) [Example 13]
[1]
  Ki: 3050 nM
[2]
  Ki: 32 nM
[3]
  Ki: 1910 nM

## N=C(NCc1cccc2ccccc12)NC(=O)NC1CCCCC1O (stereo not drawn) [Example 14, 1-({[({[(2-Hydroxycyclohexyl)amino]carbonyl}amino)(imino)methyl]amino}methyl)naphthalene]
[1]
  Ki: 1250 nM
[2]
  Ki: 11 nM
[3]
  Ki: 460 nM

## N=C(NCc1cccc2ccccc12)NC(=O)NCCCO [Example 16, 1-({[({[(3-Hydroxypropyl)amino}carbonyl}amino)(imino)methyl]amino}methyl)naphthalene]
[1]
  Ki: 480 nM
[2]
  Ki: 21 nM
[3]
  Ki: 500 nM

## N=C(NCc1cccc2ccccc12)NC(=O)NCc1cccc(CN)c1 [Example 17, 1-({[[({[3-(Aminomethyl)benzyl]amino}carbonyl)amino](imino)methyl]amino}methyl)naphthalene]
[1]
  Ki: 680 nM
[2]
  Ki: 11 nM
[3]
  Ki: 480 nM

## N=C(NCc1cccc2ccccc12)NC(=O)N[C@@H](CO)c1ccccc1 [Example 19, 1-({[[({[(1R)-2-Hydroxy-1-phenylethyl]amino}carbonyl)amino](imino)methyl]amino}methyl)naphthalene]
[1]
  Ki: 930 nM
[2]
  Ki: 110 nM
[3]
  Ki: 200 nM

## N=C(NCc1cccc2ccccc12)NC(=O)NCc1cccs1 [Example 20, 2-({[({Imino[(1-naphthylmethyl)amino]methyl}amino)carbonyl]amino}methyl)thiophene]
[1]
  Ki: 1360 nM
[2]
  Ki: 16 nM
[3]
  Ki: 540 nM

## CC(=O)NCCNC(=O)NC(=N)NCc1cccc2ccccc12 [Example 26, N-(2-{[({Imino[(1-naphthylmethyl)amino]methyl}amino)carbonyl]amino}ethyl)acetamide]
[1]
  Ki: 1450 nM
[2]
  Ki: 10 nM
[3]
  Ki: > 2500 nM

## N=C(NCc1cccc2ccccc12)NC(=O)Nc1cccc(C(N)=O)c1 [Example 27, 3-{[({Imino[(1-naphthylmethyl)amino]methyl}amino)carbonyl]amino}benzamide]
[1]
  Ki: 79 nM
[2]
  Ki: 18 nM
[3]
  Ki: > 2500 nM

## COc1ccc(CNC(=O)NC(=N)NCc2cccc3ccccc23)cc1 [Example 28, 1-({[Imino({[(4-methoxybenzyl)amino]carbonyl}amino)methyl]amino}methyl)naphthalene]
[1]
  Ki: 3400 nM
[2]
  Ki: 43 nM
[3]
  Ki: 500 nM

## CC(O)CNC(=O)NC(=N)NCc1cccc2ccccc12 (stereo not drawn) [Example 30, 1({[({[(2-Hydroxypropyl)amino]carbonyl}amino)(imino)methyl]amino}methyl) naphthalene]
[1]
  Ki: 1510 nM
[2]
  Ki: 13 nM
[3]
  Ki: 1580 nM

## N=C(NCc1cccc2ccccc12)NC(=O)NCCc1ccc(O)cc1 [Example 31, 1-({[({[(4-Hydroxyphenethyl)amino]carbonyl}amino)(imino)methyl]amino}methyl) naphthalene]
[2]
  Ki: 19 nM

## N=C(NCc1cccc2ccccc12)NC(=O)NCc1ccc(F)cc1 [Example 32, 1-({[({[(4-Fluorobenzyl)amino]carbonyl}amino)(imino)methyl]amino}methyl)naphthalene]
[1]
  Ki: 1300 nM
[2]
  Ki: 24 nM
[3]
  Ki: 780 nM

## N=C(NCc1cccc2ccccc12)NC(=O)NCCc1ccc(N)cc1 [Example 33, 1-({[({[(4-Amninophenethyl)amino]carbonyl}amino)(imino)methyl]amino}methyl) naphthalene]
[1]
  Ki: 1240 nM
[2]
  Ki: 48 nM
[3]
  Ki: 900 nM

## N=C(NCc1cccc2ccccc12)NC(=O)NC1CC1 [Example 34, 1-({[{[(Cyclopropylamino)carbonyl]amino}(imino)methyl]amino}methyl)naphthalene]
[1]
  Ki: 7750 nM
[2]
  Ki: 13 nM
[3]
  Ki: 1790 nM

## N=C(NCc1cccc2ccccc12)NC(=O)N1CCNCC1 [Example 37, N-(1-Naphthylmethyl)-N′-(1-piperazinylcarbonyl)guanidine]
[2]
  Ki: 930 nM

## COCCCNC(=O)NC(=N)NCc1cccc2ccccc12 [Example 38, 1-(3-Imino-5-oxo-10-oxa-2,4,6-triazaundec-1-yl)naphthalene]
[1]
  Ki: 1180 nM
[2]
  Ki: 14 nM
[3]
  Ki: > 2500 nM

## N=C(NCc1cccc2ccccc12)NC(=O)NCCc1c[nH]c2ccc(Cl)cc12 [Example 39, 5-Chloro-3-(2-{[({imino[(1-naphthylmethyl)amino]methyl}amino)carbonyl]amino}ethyl)-1H-indole]
[1]
  Ki: 1180 nM
[2]
  Ki: 120 nM
[3]
  Ki: 400 nM

## CNC(=O)/N=C(/NCc1cccc2ccccc12)NC(=O)NC [Example 52, N-Methyl-N′-{(Z)-{[(methylamino)carbonyl]amino}[(1-naphthylmethyl)amino]methylidene}urea]
[2]
  Ki: 1010 nM

## COc1ccccc1N1CCN(C(=O)NC(=N)N[C@H](C)c2ccc3ccccc3c2)CC1 [Example 82, N-{[4-(2-Methoxyphenyl)-1-piperazinyl]carbonyl}-N′-[(1R)-1-(2-naphthyl)ethyl]guanidine]
[2]
  Ki: 1080 nM

## COc1ccccc1N1CCN(C(=O)NC(=N)N[C@H](C)c2cccc3ccccc23)CC1 [Example 83, N-{[4-(2-Methoxyphenyl)-1-piperazinyl]carbonyl}-N′-[(1R)-1-(1-naphthyl)ethyl]guanidine]
[2]
  Ki: 750 nM

## COc1ccc(CNC(=N)NC(C)=O)c2ccccc12 [Example 88, N-Acetyl-N′-[(4-methoxy-1-naphthyl)methyl]guanidine]
[2]
  Ki: 1230 nM

## O=C(Nc1nc2ccccc2[nH]1)Nc1cc(F)ccc1F [Example 89]
[2]
  Ki: 2700 nM
